Patent US9663508B2, “Biaryl acyl-sulfonamide compounds as sodium channel inhibitors” (AMGEN INC., priority 2013, dated 2017)

Biological target: human Nav1.7 (Homo sapiens (Human), UniProt Q15858)
Test: Nav 1.7 in vitro PatchXpress (PX) assay
Format: cell-based
Conditions: not given

Sequence of human Nav1.7 (Q15858 whole entry): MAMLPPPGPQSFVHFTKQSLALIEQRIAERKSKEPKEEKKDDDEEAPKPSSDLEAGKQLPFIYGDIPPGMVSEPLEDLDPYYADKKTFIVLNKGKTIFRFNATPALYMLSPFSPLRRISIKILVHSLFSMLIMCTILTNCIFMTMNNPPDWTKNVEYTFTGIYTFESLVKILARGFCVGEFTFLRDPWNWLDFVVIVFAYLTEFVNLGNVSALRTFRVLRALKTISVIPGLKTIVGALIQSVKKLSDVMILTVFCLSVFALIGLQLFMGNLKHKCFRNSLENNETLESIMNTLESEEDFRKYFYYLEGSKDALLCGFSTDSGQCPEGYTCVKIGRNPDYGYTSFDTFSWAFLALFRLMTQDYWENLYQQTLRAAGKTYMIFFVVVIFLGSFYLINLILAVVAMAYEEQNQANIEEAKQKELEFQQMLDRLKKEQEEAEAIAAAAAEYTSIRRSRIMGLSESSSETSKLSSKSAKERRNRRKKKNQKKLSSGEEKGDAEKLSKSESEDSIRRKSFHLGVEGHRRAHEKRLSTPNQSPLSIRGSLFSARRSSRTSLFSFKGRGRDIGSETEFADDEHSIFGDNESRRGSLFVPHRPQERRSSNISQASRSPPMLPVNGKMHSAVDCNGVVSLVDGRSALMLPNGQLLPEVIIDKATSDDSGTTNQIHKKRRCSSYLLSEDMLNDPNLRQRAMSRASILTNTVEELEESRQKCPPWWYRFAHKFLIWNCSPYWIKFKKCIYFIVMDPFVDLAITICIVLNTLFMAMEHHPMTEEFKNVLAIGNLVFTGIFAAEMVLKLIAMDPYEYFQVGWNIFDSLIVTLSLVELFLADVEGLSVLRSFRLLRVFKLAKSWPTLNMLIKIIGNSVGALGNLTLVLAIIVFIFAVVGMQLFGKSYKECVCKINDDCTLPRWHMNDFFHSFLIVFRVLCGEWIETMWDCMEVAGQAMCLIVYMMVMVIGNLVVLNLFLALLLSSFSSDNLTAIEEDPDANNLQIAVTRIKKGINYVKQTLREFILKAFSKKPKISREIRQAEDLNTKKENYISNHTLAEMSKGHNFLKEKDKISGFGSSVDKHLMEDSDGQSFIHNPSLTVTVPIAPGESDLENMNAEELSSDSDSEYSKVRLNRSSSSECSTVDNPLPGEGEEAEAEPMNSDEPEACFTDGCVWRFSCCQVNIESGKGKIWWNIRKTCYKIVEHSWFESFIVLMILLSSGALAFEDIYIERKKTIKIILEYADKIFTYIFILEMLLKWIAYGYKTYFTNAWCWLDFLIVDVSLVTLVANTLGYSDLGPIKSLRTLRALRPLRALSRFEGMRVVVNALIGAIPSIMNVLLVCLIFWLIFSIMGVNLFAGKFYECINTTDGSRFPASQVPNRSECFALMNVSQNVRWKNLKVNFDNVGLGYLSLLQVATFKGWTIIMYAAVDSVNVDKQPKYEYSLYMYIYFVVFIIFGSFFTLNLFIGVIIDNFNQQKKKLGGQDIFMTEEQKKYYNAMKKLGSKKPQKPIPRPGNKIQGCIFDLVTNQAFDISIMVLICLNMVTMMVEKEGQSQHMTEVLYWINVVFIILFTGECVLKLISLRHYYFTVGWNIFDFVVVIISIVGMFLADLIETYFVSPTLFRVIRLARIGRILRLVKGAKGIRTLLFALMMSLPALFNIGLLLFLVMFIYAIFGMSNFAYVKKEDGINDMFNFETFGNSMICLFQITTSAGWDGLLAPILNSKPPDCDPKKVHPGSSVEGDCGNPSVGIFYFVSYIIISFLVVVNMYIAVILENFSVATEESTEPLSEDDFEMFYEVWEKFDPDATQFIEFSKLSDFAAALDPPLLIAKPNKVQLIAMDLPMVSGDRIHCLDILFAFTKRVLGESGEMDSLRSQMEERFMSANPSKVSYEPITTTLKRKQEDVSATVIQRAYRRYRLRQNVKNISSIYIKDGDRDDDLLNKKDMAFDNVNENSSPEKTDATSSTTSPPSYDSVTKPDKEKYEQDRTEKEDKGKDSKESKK

| Compound | IC50 [µM] |
| --- | --- |
| COc1cc(C(=O)NS(C)(=O)=O)ccc1-c1cnc(Oc2ccc(Cl)cc2)c(Cl)c1 [Example 350, 4-(5-chloro-6-(4-chlorophenoxy)-3-pyridinyl)-3-methoxy-N-(methylsulfonyl)benzamide] | 0.0926 |
| COc1cc(C(=O)NS(C)(=O)=O)ccc1-c1cnc(Oc2ccc(F)cc2C)c(Cl)c1 [Example 361, 4-(5-chloro-6-(4-fluoro-2-methylphenoxy)-3-pyridinyl)-3-methoxy-N-(methylsulfonyl)benzamide] | 0.0966 |
| Cc1ccc(Oc2ncc(-c3ccc(C(=O)NS(C)(=O)=O)cc3OC3COC3)cc2Cl)cc1Cl [Example 425, 4-(5-chloro-6-(3-chloro-4-methylphenoxy)-3-pyridinyl)-N-(methylsulfonyl)-3-(3-oxetanyloxy)benzamide] | 0.0322 |
| Cc1cc(C(=O)NS(C)(=O)=O)c(F)cc1-c1cnc(Oc2c(F)ccc(Cl)c2F)c(Cl)c1 [Example 625, 4-(5-chloro-6-(3-chloro-2,6-difluorophenoxy)-3-pyridinyl)-2-fluoro-5-methyl-N-(methylsulfonyl)benzamide] | 0.0837 |
| COc1cc(C(=O)NS(C)(=O)=O)c(F)cc1-c1cnc(N(C)C2CCC2)c(Cl)c1 [Example 697, 4-(5-chloro-6-(cyclobutyl(methyl)amino)-3-pyridinyl)-2-fluoro-5-methoxy-N-(methylsulfonyl)benzamide] | 0.146 |
| CCc1cc(Oc2ncc(-c3ccc(C(=O)NS(C)(=O)=O)cc3OC)cc2Cl)ccc1Cl [Example 368, 4-(5-chloro-6-(4-chloro-3-ethylphenoxy)-3-pyridinyl)-3-methoxy-N-(methylsulfonyl)benzamide] | 0.0723 |
| Cc1cc(Cl)cc(Cl)c1Oc1ncc(-c2ccc(C(=O)NS(C)(=O)=O)cc2OC2COC2)cc1Cl [Example 584, 4-(5-chloro-6-(2,4-dichloro-6-methylphenoxy)-3-pyridinyl)-N-(methylsulfonyl)-3-(3-oxetanyloxy)benzamide] | 0.059 |
| CS(=O)(=O)NC(=O)c1cc(F)c(-c2cnc(Oc3c(Cl)cc(F)cc3Cl)c(Cl)c2)cc1F [Example 572, 4-(5-chloro-6-(2,6-dichloro-4-fluorophenoxy)-3-pyridinyl)-2,5-difluoro-N-(methylsulfonyl)benzamide] | 0.0576 |

Same assay, conditions: in-vitro Nav 1.7 PX data

| Compound | IC50 [µM] |
| --- | --- |
| COc1nccc(C)c1-c1cc(C(=O)NS(C)(=O)=O)ccc1-c1cnc(OCC(C)C)c(Cl)c1 (single isomer, unassigned) [Example 821, 4-(5-Chloro-6-Isobutoxypyridin-3-yl)-3-(2-Methoxy-4-Methylpyridin-3-yl)-N-(Methylsulfonyl)Benzamide] | 32 |
| COc1cc(C(=O)NS(C)(=O)=O)c(F)cc1-c1cnc(Oc2ccc(F)c(C)c2)c(Cl)c1 [Example 754, 4-(5-chloro-6-(4-fluoro-3-methylphenoxy)-3-pyridinyl)-2-fluoro-5-methoxy-N-(methylsulfonyl)benzamide] | 0.0922 |
| COc1cc(C(=O)NS(C)(=O)=O)c(F)cc1-c1cnc(Oc2ccc3ccccc3c2Cl)c(Cl)c1 [Example 717, 4-(5-chloro-6-((1-chloro-2-naphthalenyl)oxy)-3-pyridinyl)-2-fluoro-5-methoxy-N-(methylsulfonyl)benzamide] | 0.0993 |
| COc1cc(C(=O)NS(C)(=O)=O)c(F)cc1-c1cnc(O[C@H](C)c2ccccc2)c(Cl)c1 [Example 749, 4-(5-chloro-6-((1R)-1-phenylethoxy)-3-pyridinyl)-2-fluoro-5-methoxy-N-(methylsulfonyl)benzamide] | 0.0936 |
| CS(=O)(=O)NC(=O)c1cc(OC(F)F)c(-c2cnc(O[C@@H]3C[C@H]4CC[C@H]3C4)c(Cl)c2)cc1F [Example 783, 4-(6-((1S,2R,4S)-bicyclo[2.2.1]hept-2-yloxy)-5-chloro-3-pyridinyl)-5-(difluoromethoxy)-2-fluoro-N-(methylsulfonyl)benzamide] | 0.0732 |
| COc1cc(C(=O)NS(C)(=O)=O)c(F)cc1-c1cnc(O[C@@H](C)Cc2ccccc2)c(Cl)c1 [Example 758, 4-(5-chloro-6-((1S)-1-methyl-2-phenylethoxy)-3-pyridinyl)-2-fluoro-5-methoxy-N-(methylsulfonyl)benzamide] | 0.0838 |
